Reference: paper PMC3545186 (Biochemical Pharmacology, 2013)
“And” between values parts separate entries of the source, which are not always exact repeats. Identical values can stand only once. Numbered stars: 1 amine (or outer) side, 2 acyl side, 3 side chain; on linkers, the order of the positions; unused ones are H or OH. Bridge positions count the residues as written; N and C are the ends. Square brackets hold non-standard residues; d marks the D form. Peptide text beside a SMILES is read from it. I, II: the chains in the order shown. Actinocin(9to1) = Cc1c2oc3c(C)ccc(C(=O)[*:1])c3nc-2c(C(=O)[*:2])c(N)c1=O; NMeV = CN[C@H](C(=O)O)C(C)C; Sar = CNCC(=O)O

Legend:
MDCKII-ABCC1 cells [1] = experiment: Growth inhibition; type: cell-based, canine; conditions: MDCKII-ABCC1, MK571 25 μM
MDCKII-ABCC2 cells [2] = experiment: Growth inhibition; type: cell-based, canine; conditions: MDCKII-ABCC2, MK571 25 μM, p = 0.23
ABCG2 (BCRP) = experiment: Growth inhibition; type: cell-based, canine; conditions: dog, MDCKII cells transfected with human ABCG2 (BCRP)
MDCKII-ABCG2 cells [3] = experiment: Growth inhibition; type: cell-based, canine; conditions: MDCKII-ABCG2, Act D alone or with KO143, p = 0.74
MDCKII-WT cells = experiment: Intracellular accumulation of Act D; type: in vitro ADME, canine; conditions: 0.01 μM Act D, 12 h
MDCKII-ABCC1 cells [4] = experiment: Intracellular accumulation of Act D; type: in vitro ADME, canine
MDCKII-ABCC2 cells [5] = experiment: Intracellular accumulation of Act D; type: in vitro ADME, canine
MDCKII-ABCG2 cells [6] = experiment: Intracellular accumulation of Act D; type: in vitro ADME, canine
MDCKII-ABCB1 cells = experiment: Cellular efflux of Act D after 4 h uptake; type: in vitro ADME, canine; conditions: MDCKII-ABCB1, after 4 h with 0.1 μM Act D
MDCKII-ABCC1 cells [7] = experiment: Cellular efflux of Act D after 4 h uptake; type: in vitro ADME, canine; conditions: MDCKII-ABCC1, after 4 h with 0.1 μM Act D
MDCKII-ABCC2 cells [8] = experiment: Cellular efflux of Act D after 4 h uptake; type: in vitro ADME, canine
MDCKII-ABCG2 cells [9] = experiment: Cellular efflux of Act D after 4 h uptake; type: in vitro ADME, canine; conditions: MDCKII-ABCG2, not statistically significant
in vivo = type: in vivo, mice; conditions: for Cmax / Tmax / half-life: mouse, in vivo, iv
[10] = type: in vivo, mice; conditions: 0.5 mg/kg i.v.
[11] = Abcb1a/1b−/− knockout (parental strain FVB), 0.5 mg/kg
[12] = Abcc2−/− knockout (parental strain FVB), 0.5 mg/kg
[13] = Abcc2−/− mice, 0.5 mg/kg i.v., 0.5 mg/kg
[14] = WT mice, 0.5 mg/kg i.v., 0.5 mg/kg

intracellular accumulation of Act D (MDCKII-WT cells): 0.98 nM
increased accumulation with MK571 compared to absence of inhibitor (MDCKII-ABCC1 cells [4]; MDCKII-ABCC1, not statistically significant): 1.2 fold
lower accumulation of Act D compared to parental cell line (MDCKII-ABCC1 cells [4]; MDCKII-ABCC1 vs MDCKII-WT, 12 h): 2.5 fold and 2.45 fold
increased accumulation with MK571 compared to absence of inhibitor (MDCKII-ABCC2 cells [5]; MDCKII-ABCC2, not statistically significant): 1.4 fold
lower accumulation of Act D compared to parental cell line (MDCKII-ABCC2 cells [5]; MDCKII-ABCC2 vs MDCKII-WT, 12 h): 3.5 fold
Act D accumulation compared to WT cells (MDCKII-ABCG2 cells [6]; MDCKII-ABCG2): not different to WT cells
effect of co-incubation with KO143 on Act D accumulation (MDCKII-ABCG2 cells [6]; MDCKII-ABCG2, data not shown): no effect
reduction in intracellular Act D over 2 h after drug removal (MDCKII-ABCB1 cells): 5.5 fold
reduction in intracellular Act D over 2 h after drug removal (MDCKII-ABCC1 cells [7]): 1.9 fold
reduction in intracellular Act D over 2 h after drug removal (MDCKII-ABCC2 cells [8]; MDCKII-ABCC2, after 4 h with 0.1 μM Act D): 2.1 fold
reduction in intracellular Act D over 1 h after drug removal (MDCKII-ABCC2 cells [8]; MDCKII-ABCC2, compared to parental cell line): 1.8 fold
higher intracellular Act D after 2 h (MDCKII-ABCG2 cells [9]): 1.5 fold
greater plasma AUC0–∞ in Abcb1a/1b−/− mice compared to WT (in vivo; 0.5 mg/kg i.v.): 1.9 fold
higher plasma AUC0–6 h in Abcb1a/1b−/− mice compared to WT (in vivo; 0.5 mg/kg i.v.): 1.6 fold
higher plasma Cmax at 15 min in Abcb1a/1b−/− mice compared to WT (in vivo; 0.5 mg/kg i.v.): 1.4 fold
higher plasma concentration at 30 min in Abcb1a/1b−/− mice compared to WT (in vivo; 0.5 mg/kg i.v.): 1.7 fold
longer elimination half-life (t1/2) in Abcb1a/1b−/− mice compared to WT (in vivo; 0.5 mg/kg i.v.): 1.5 fold
Cmax (in vivo; [11]): 96.7 ± 12 ng/mL
Tmax (in vivo; [11]): 0.25 h
half-life (in vivo; [11]): 2.78 h
plasma AUC0–∞ (in vivo; Abcb1a/1b−/− mice, 0.5 mg/kg i.v., 0.5 mg/kg): 322.6 ng·h/mL
Act D plasma concentration (in vivo; Abcb1a/1b−/− mice, 0.25 h, 0.5 mg/kg i.v.): 96.7 ± 12.0 µg/L
Act D plasma concentration (in vivo; Abcb1a/1b−/− mice, 0.5 h, 0.5 mg/kg i.v., 0.5 mg/kg): 71.6 µg/L and 71.6 ± 12.3 µg/L
Act D plasma concentration (in vivo; Abcb1a/1b−/− mice, 2 h, 0.5 mg/kg i.v.): 35.8 ± 2.01 µg/L
Act D plasma concentration (in vivo; Abcb1a/1b−/− mice, 6 h, 0.5 mg/kg i.v.): 20.1 ± 0.78 µg/L
half-life (in vivo; Abcc2−/− knockout (FVB background), 0.5 mg/kg): 2.46 h
Cmax (in vivo; [12]): 48 ± 11.1 ng/mL
Tmax (in vivo; [12]): 0.25 h
plasma AUC0–6 h (in vivo; [13]): 114.8 ng·h/mL
plasma AUC0–∞ (in vivo; [13]): 145.2 ng·h/mL
Act D plasma concentration (in vivo; Abcc2−/− mice, 0.25 h, 0.5 mg/kg i.v.): 48.0 ± 11.1 µg/L
Act D plasma concentration (in vivo; Abcc2−/− mice, 0.5 h, 0.5 mg/kg i.v.): 37.7 ± 6.07 µg/L
Act D plasma concentration (in vivo; Abcc2−/− mice, 2 h, 0.5 mg/kg i.v.): 16.3 ± 3.73 µg/L
Act D plasma concentration (in vivo; Abcc2−/− mice, 6 h, 0.5 mg/kg i.v.): 8.6 ± 0.96 µg/L
Cmax (in vivo; FVB (wild type), 0.5 mg/kg): 68.6 ± 15.6 ng/mL
Tmax (in vivo; FVB (wild type), 0.5 mg/kg): 0.25 h
half-life (in vivo; FVB (wild type), 0.5 mg/kg): 1.92 h
plasma AUC0–6 h (in vivo; [14]): 151.5 ng·h/mL
plasma AUC0–∞ (in vivo; [14]): 168.1 ng·h/mL
Act D plasma concentration (in vivo; WT mice, 0.25 h, 0.5 mg/kg i.v.): 68.6 ± 15.6 µg/L
Act D plasma concentration (in vivo; WT mice, 0.5 h, 0.5 mg/kg i.v., 0.5 mg/kg): 43.3 µg/L and 43.3 ± 7.68 µg/L
Act D plasma concentration (in vivo; WT mice, 2 h, 0.5 mg/kg i.v.): 25.8 ± 4.78 µg/L
Act D plasma concentration (in vivo; WT mice, 6 h, 0.5 mg/kg i.v.): 6.0 ± 0.65 µg/L
higher brain AUC0–6 h in Abcb1a/1b−/− mice compared to WT [10]: 2.3 fold
higher brain AUC0–6 h in Abcc2−/− mice compared to WT [10]: 1.3 fold
Brain AUC0–6 h (peak area) ([10]; Abcb1a/1b−/− mice): 6802 pa/g h
Brain Cmax (peak area) ([10]; Abcb1a/1b−/− mice): 1420 ± 521 pa
Kidney AUC0–6 h ([10]; Abcb1a/1b−/− mice): 35,381 μg/L h
Kidney AUC0–∞ ([10]; Abcb1a/1b−/− mice): 46,701 μg/L h
Kidney Cmax ([10]; Abcb1a/1b−/− mice): 13,207 ± 1025 μg/L
Liver AUC0–6 h ([10]; Abcb1a/1b−/− mice): 4616 ng·h/mL
Liver AUC0–∞ ([10]; Abcb1a/1b−/− mice): 6594 ng·h/mL
Liver Cmax ([10]; Abcb1a/1b−/− mice): 2323 ± 239 ng/mL
Brain peak area ([10]; Abcb1a/1b−/− mice, 0.25 h, per gram of tissue): 1134 ± 635 pa
SMILES: Cc1c2oc3c(C)ccc(C(=O)N[C@@H]4C(=O)N[C@H](C(C)C)C(=O)N5CCC[C@H]5C(=O)N(C)CC(=O)N(C)[C@@H](C(C)C)C(=O)O[C@@H]4C)c3nc-2c(C(=O)N[C@@H]2C(=O)N[C@H](C(C)C)C(=O)N3CCC[C@H]3C(=O)N(C)CC(=O)N(C)[C@@H](C(C)C)C(=O)O[C@@H]2C)c(N)c1=O [Act D, actinomycin D] (I: T[dV]P[Sar][NMeV] / II: T[dV]P[Sar][NMeV]; ester I:1-I:C, II:1-II:C; linker I:N-II:N via Actinocin(9to1))
increase in sensitivity to Act D with MK571 (MDCKII-ABCC1 cells [1]): greater than 4 fold
effect of MK571 on sensitivity to Act D (MDCKII-ABCC2 cells [2]): no effect
GI50 at 72 h (ABCG2 (BCRP)): 14 nM
difference in sensitivity vs parental cell line (MDCKII-ABCG2 cells [3]): No difference in sensitivity
